Laboratory results from ChEMBL document CHEMBL3233003, “Chromodomain antagonists that target the polycomb-group methyllysine reader protein chromobox homolog 7 (CBX7)” (J Med Chem, 2014).
Non-standard residues stand in square brackets, D forms with d. Residues, ends and D or L forms follow the SMILES beside them. *: point of attachment. Benzenesulfonyl(4-OMe) = COc1ccc(S(=O)(=O)*)cc1; Benzoyl(4-CO2Me) = COC(=O)c1ccc(C(=O)*)cc1; Benzoyl(4-COOH) = O=C(O)c1ccc(C(=O)*)cc1; Lys(Me3) = C[N+](C)(C)CCCC[C@H](N)C(=O)O; Gly(cPent) = N[C@H](C(=O)O)C1CCCC1; Hydrocinnamoyl = O=C(CCc1ccccc1)*; NBnAla = C[C@H](NCc1ccccc1)C(=O)O; Ala(cPr) = N[C@@H](CC1CC1)C(=O)O; X3 = COC(=O)c1ccc(S(=O)(=O)*)cc1; 3Pal = N[C@@H](Cc1cccnc1)C(=O)O; X6 = O=C(O)c1ccc(S(=O)(=O)*)cc1; Cha = N[C@@H](CC1CCCCC1)C(=O)O; Gly(cPr) = N[C@H](C(=O)O)C1CC1; Phg = N[C@H](C(=O)O)c1ccccc1; Tle = CC(C)(C)[C@H](N)C(=O)O; Nicotinoyl = O=C(c1cccnc1)*; Tos = Cc1ccc(S(=O)(=O)*)cc1; X2 = O=C(c1c[nH]c2ccccc12)*; Nle = CCCC[C@H](N)C(=O)O; X10 = O=C(Cc1ccccc1Br)*; X7 = O=S(=O)(c1cccnc1)*; Cbz = O=C(OCc1ccccc1)*; PhAc = O=C(Cc1ccccc1)*; Bz = O=C(c1ccccc1)*

Target: T1, Chromobox protein homolog 7 (Homo sapiens, UniProt O95931)
T1 sequence (O95931 whole entry): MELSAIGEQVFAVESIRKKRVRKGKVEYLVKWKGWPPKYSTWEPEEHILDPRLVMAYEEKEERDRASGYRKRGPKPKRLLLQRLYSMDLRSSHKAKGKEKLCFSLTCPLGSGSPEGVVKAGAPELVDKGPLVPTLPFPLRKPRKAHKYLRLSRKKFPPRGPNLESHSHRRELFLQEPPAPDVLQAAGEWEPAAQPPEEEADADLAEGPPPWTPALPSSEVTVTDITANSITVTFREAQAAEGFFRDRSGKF
Assay: Displacement of FITC-labeled H3K27me3 from CBX7 (unknown origin) after 15 mins by fluorescence polarization assay

Row | Compound | IC50
1 | CSCC[C@H](NC(=O)[C@H](C)NC(=O)[C@H](Cc1ccccc1)NC(C)=O)C(=O)N[C@@H](CCCC[N+](C)(C)C)C(=O)N[C@@H](CO)C(N)=O (Ac-FAM[Lys(Me3)]S-NH2) | 62 µM
2 | CC(=O)N[C@@H](Cc1ccccc1)C(=O)N[C@@H](C)C(=O)N[C@H](C(=O)N[C@@H](CCCC[N+](C)(C)C)C(=O)N[C@@H](CO)C(N)=O)[C@@H](C)O (Ac-FAT[Lys(Me3)]S-NH2) | 35 µM
3 | CC(=O)N[C@@H](Cc1ccccc1)C(=O)N[C@@H](C)C(=O)N[C@H](C(=O)N[C@@H](CCCC[N+](C)(C)C)C(=O)N[C@@H](CO)C(N)=O)C(C)C (Ac-FAV[Lys(Me3)]S-NH2) | 6.8 µM
4 | CC(=O)N[C@@H](Cc1ccccc1)C(=O)N[C@@H](C)C(=O)N[C@@H](Cc1c[nH]c2ccccc12)C(=O)N[C@@H](CCCC[N+](C)(C)C)C(=O)N[C@@H](CO)C(N)=O (Ac-FAW[Lys(Me3)]S-NH2) | 13 µM
5 | CC(=O)N[C@@H](Cc1ccccc1)C(=O)N[C@@H](C)C(=O)N[C@@H](Cc1cccnc1)C(=O)N[C@@H](CCCC[N+](C)(C)C)C(=O)N[C@@H](CO)C(N)=O (Ac-FA[3Pal][Lys(Me3)]S-NH2) | 11 µM
6 | CC(=O)N[C@@H](Cc1ccccc1)C(=O)N[C@@H](C)C(=O)N[C@@H](CC1CC1)C(=O)N[C@@H](CCCC[N+](C)(C)C)C(=O)N[C@@H](CO)C(N)=O (Ac-FA[Ala(cPr)][Lys(Me3)]S-NH2) | 11.2 µM
7 | CC(=O)N[C@@H](Cc1ccccc1)C(=O)N[C@@H](C)C(=O)N[C@@H](CC1CCCCC1)C(=O)N[C@@H](CCCC[N+](C)(C)C)C(=O)N[C@@H](CO)C(N)=O (Ac-FA[Cha][Lys(Me3)]S-NH2) | 8.8 µM
8 | CC(=O)N[C@@H](Cc1ccccc1)C(=O)N[C@@H](C)C(=O)N[C@H](C(=O)N[C@@H](CCCC[N+](C)(C)C)C(=O)N[C@@H](CO)C(N)=O)C1CCCC1 (Ac-FA[Gly(cPent)][Lys(Me3)]S-NH2) | 6 µM
9 | CC(=O)N[C@@H](Cc1ccccc1)C(=O)N[C@@H](C)C(=O)N[C@H](C(=O)N[C@@H](CCCC[N+](C)(C)C)C(=O)N[C@@H](CO)C(N)=O)C1CC1 (Ac-FA[Gly(cPr)][Lys(Me3)]S-NH2) | 21 µM
10 | CCCC[C@H](NC(=O)[C@H](C)NC(=O)[C@H](Cc1ccccc1)NC(C)=O)C(=O)N[C@@H](CCCC[N+](C)(C)C)C(=O)N[C@@H](CO)C(N)=O (Ac-FA[Nle][Lys(Me3)]S-NH2) | 23 µM
11 | CC(=O)N[C@@H](Cc1ccccc1)C(=O)N[C@@H](C)C(=O)N[C@H](C(=O)N[C@@H](CCCC[N+](C)(C)C)C(=O)N[C@@H](CO)C(N)=O)C(C)(C)C (Ac-FA[Tle][Lys(Me3)]S-NH2) | 67 µM
12 | CC(=O)N[C@@H](Cc1ccccc1)C(=O)N[C@@H](CO)C(=O)N[C@@H](CC(C)C)C(=O)N[C@@H](CCCC[N+](C)(C)C)C(=O)N[C@@H](CO)C(N)=O (Ac-FSL[Lys(Me3)]S-NH2) | 53 µM
13 | CC(=O)N[C@@H](Cc1ccccc1)C(=O)N[C@H](C(=O)N[C@@H](CC(C)C)C(=O)N[C@@H](CCCC[N+](C)(C)C)C(=O)N[C@@H](CO)C(N)=O)C(C)C (Ac-FVL[Lys(Me3)]S-NH2) | > 500 µM
14 | CCCC[C@H](NC(=O)[C@H](Cc1ccccc1)NC(C)=O)C(=O)N[C@@H](CC(C)C)C(=O)N[C@@H](CCCC[N+](C)(C)C)C(=O)N[C@@H](CO)C(N)=O (Ac-F[Nle]L[Lys(Me3)]S-NH2) | 120 µM
15 | CC(=O)N[C@@H](Cc1c[nH]c2ccccc12)C(=O)N[C@@H](C)C(=O)N[C@@H](CC(C)C)C(=O)N[C@@H](CCCC[N+](C)(C)C)C(=O)N[C@@H](CO)C(N)=O (Ac-WAL[Lys(Me3)]S-NH2) | 7.8 µM
16 | CC(=O)N[C@@H](Cc1ccc(O)cc1)C(=O)N[C@@H](C)C(=O)N[C@@H](CC(C)C)C(=O)N[C@@H](CCCC[N+](C)(C)C)C(=O)N[C@@H](CO)C(N)=O (Ac-YAL[Lys(Me3)]S-NH2) | 8.6 µM
17 | CC(=O)N[C@H](C(=O)N[C@@H](C)C(=O)N[C@@H](CC(C)C)C(=O)N[C@@H](CCCC[N+](C)(C)C)C(=O)N[C@@H](CO)C(N)=O)c1ccccc1 (Ac-[Phg]AL[Lys(Me3)]S-NH2) | 26 µM
18 | CC(C)C[C@H](NC(=O)[C@H](C)NC(=O)c1ccccc1)C(=O)N[C@@H](CCCC[N+](C)(C)C)C(=O)N[C@@H](CO)C(N)=O (Bz-AL[Lys(Me3)]S-NH2) | 57 µM
19 | CC(C)C[C@H](NC(=O)[C@H](C)NC(=O)[C@H](Cc1ccccc1)NC(=O)c1ccccc1)C(=O)N[C@@H](CCCC[N+](C)(C)C)C(=O)N[C@@H](CO)C(N)=O (Bz-FAL[Lys(Me3)]S-NH2) | 8.8 µM

Row | Compound | IC50
20 | CC(C)C[C@H](NC(=O)[C@H](C)NC(=O)CNC(=O)c1ccccc1)C(=O)N[C@@H](CCCC[N+](C)(C)C)C(=O)N[C@@H](CO)C(N)=O (Bz-GAL[Lys(Me3)]S-NH2) | 58 µM
21 | CC(C)C[C@H](NC(=O)[C@H](C)NC(=O)OCc1ccccc1)C(=O)N[C@@H](CCCC[N+](C)(C)C)C(=O)N[C@@H](CO)C(N)=O (Cbz-AL[Lys(Me3)]S-NH2) | 58 µM
22 | CC(C)C[C@H](NC(=O)[C@H](C)NCc1ccccc1)C(=O)N[C@@H](CCCC[N+](C)(C)C)C(=O)N[C@@H](CO)C(N)=O (H-[NBnAla]L[Lys(Me3)]S-NH2) | > 2000 µM
23 | CC(C)C[C@H](NC(=O)[C@H](C)NC(=O)CCc1ccccc1)C(=O)N[C@@H](CCCC[N+](C)(C)C)C(=O)N[C@@H](CO)C(N)=O (Hydrocinnamoyl-AL[Lys(Me3)]S-NH2) | 26 µM
24 | CC(C)C[C@H](NC(=O)[C@H](C)NC(=O)c1cccnc1)C(=O)N[C@@H](CCCC[N+](C)(C)C)C(=O)N[C@@H](CO)C(N)=O (Nicotinoyl-AL[Lys(Me3)]S-NH2) | 91 µM
25 | CC(C)C[C@H](NC(=O)[C@H](C)NC(=O)Cc1ccccc1)C(=O)N[C@@H](CCCC[N+](C)(C)C)C(=O)N[C@@H](CO)C(N)=O (PhAc-AL[Lys(Me3)]S-NH2) | 23 µM
26 | CC(C)C[C@H](NC(=O)[C@H](C)NC(=O)CNC(=O)Cc1ccccc1)C(=O)N[C@@H](CCCC[N+](C)(C)C)C(=O)N[C@@H](CO)C(N)=O (PhAc-GAL[Lys(Me3)]S-NH2) | 100 µM
27 | Cc1ccc(S(=O)(=O)N[C@@H](Cc2ccccc2)C(=O)N[C@@H](C)C(=O)N[C@@H](CC(C)C)C(=O)N[C@@H](CCCC[N+](C)(C)C)C(=O)N[C@@H](CO)C(N)=O)cc1 (Tos-FAL[Lys(Me3)]S-NH2) | > 250 µM
28 | Cc1ccc(S(=O)(=O)NCC(=O)N[C@@H](C)C(=O)N[C@@H](CC(C)C)C(=O)N[C@@H](CCCC[N+](C)(C)C)C(=O)N[C@@H](CO)C(N)=O)cc1 (Tos-GAL[Lys(Me3)]S-NH2) | 34 µM
29 | CC(C)C[C@H](NC(=O)[C@H](C)NC(=O)c1c[nH]c2ccccc12)C(=O)N[C@@H](CCCC[N+](C)(C)C)C(=O)N[C@@H](CO)C(N)=O (X2-AL[Lys(Me3)]S-NH2) | 67 µM
30 | COC(=O)c1ccc(S(=O)(=O)N[C@@H](Cc2ccccc2)C(=O)N[C@@H](C)C(=O)N[C@@H](CC(C)C)C(=O)N[C@@H](CCCC[N+](C)(C)C)C(=O)N[C@@H](CO)C(N)=O)cc1 (X3-FAL[Lys(Me3)]S-NH2) | 57 µM
31 | CC(C)C[C@H](NC(=O)[C@H](C)NC(=O)[C@H](Cc1ccccc1)NS(=O)(=O)c1ccc(C(=O)O)cc1)C(=O)N[C@@H](CCCC[N+](C)(C)C)C(=O)N[C@@H](CO)C(N)=O (X6-FAL[Lys(Me3)]S-NH2) | 6.7 µM
32 | CC(C)C[C@H](NC(=O)[C@H](C)NC(=O)CNS(=O)(=O)c1ccc(C(=O)O)cc1)C(=O)N[C@@H](CCCC[N+](C)(C)C)C(=O)N[C@@H](CO)C(N)=O (X6-GAL[Lys(Me3)]S-NH2) | 53 µM
33 | CC(C)C[C@H](NC(=O)[C@H](C)NS(=O)(=O)c1cccnc1)C(=O)N[C@@H](CCCC[N+](C)(C)C)C(=O)N[C@@H](CO)C(N)=O (X7-AL[Lys(Me3)]S-NH2) | > 250 µM
34 | CC(C)C[C@H](NC(=O)[C@H](C)NC(=O)Cc1ccccc1Br)C(=O)N[C@@H](CCCC[N+](C)(C)C)C(=O)N[C@@H](CO)C(N)=O (X10-AL[Lys(Me3)]S-NH2) | 89 µM
35 | COc1ccc(S(=O)(=O)N[C@@H](C)C(=O)N[C@@H](CC(C)C)C(=O)N[C@@H](CCCC[N+](C)(C)C)C(=O)N[C@@H](CO)C(N)=O)cc1 ({Benzenesulfonyl(4-OMe)}-AL[Lys(Me3)]S-NH2) | > 250 µM
36 | COC(=O)c1ccc(C(=O)N[C@@H](Cc2ccccc2)C(=O)N[C@@H](C)C(=O)N[C@@H](CC(C)C)C(=O)N[C@@H](CCCC[N+](C)(C)C)C(=O)N[C@@H](CO)C(N)=O)cc1 ({Benzoyl(4-CO2Me)}-FAL[Lys(Me3)]S-NH2) | 6.3 µM
37 | CC(C)C[C@H](NC(=O)[C@H](C)NC(=O)[C@H](Cc1ccccc1)NC(=O)c1ccc(C(=O)O)cc1)C(=O)N[C@@H](CCCC[N+](C)(C)C)C(=O)N[C@@H](CO)C(N)=O ({Benzoyl(4-COOH)}-FAL[Lys(Me3)]S-NH2) | 6.2 µM

Target: T2, Chromobox protein homolog 8 (Homo sapiens, UniProt Q9HC52)
T2 sequence (Q9HC52 whole entry): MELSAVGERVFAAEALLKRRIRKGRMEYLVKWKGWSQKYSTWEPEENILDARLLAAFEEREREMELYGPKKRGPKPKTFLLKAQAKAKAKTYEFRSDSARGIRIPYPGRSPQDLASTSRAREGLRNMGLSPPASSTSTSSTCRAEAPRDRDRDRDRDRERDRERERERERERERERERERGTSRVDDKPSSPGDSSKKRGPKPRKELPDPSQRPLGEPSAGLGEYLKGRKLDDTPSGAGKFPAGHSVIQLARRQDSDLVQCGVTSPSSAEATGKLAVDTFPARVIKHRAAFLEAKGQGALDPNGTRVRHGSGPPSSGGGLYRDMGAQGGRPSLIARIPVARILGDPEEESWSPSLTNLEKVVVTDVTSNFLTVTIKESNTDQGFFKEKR
Assay: Binding affinity to CBX8 (unknown origin) by isothermal titration calorimetry assay

Row | Compound | Kd
38 | CC(=O)N[C@@H](Cc1ccccc1)C(=O)N[C@@H](C)C(=O)N[C@@H](Cc1ccc(O)cc1)C(=O)N[C@@H](CCCC[N+](C)(C)C)C(=O)N[C@@H](CO)C(N)=O (Ac-FAY[Lys(Me3)]S-NH2) | 12.3 µM
